This passage reports T/C results from PubChem BioAssay AID330 (DTP/NCI, 2004).

In the assay the test system is P388 leukemia ip, CD2F1 mice, survival T/C. The assay is described as follows: NCI In Vivo Anticancer Drug Screen. Data for tumor model P388 Leukemia (intraperitoneal) in CD2F1 (CDF1) mice. The settings on record: endpoint: median survival time, higher = longer survival. The gist of the method:
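Mice carrying the transplanted tumor received test compound or vehicle. Survival was recorded in each group, and the value is the treated-group measurement divided by that of the vehicle-treated control group.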

[1] abbreviates: dose: 25.0 mg/kg/injection, schedule: Q01DX005 (ip), vehicle: Klucel (hydroxypropylcellulose) (HPC).
[2] abbreviates: dose: 50.0 mg/kg/injection, schedule: Q01DX005 (ip), vehicle: Klucel (hydroxypropylcellulose) (HPC).
The mark [3] stands for this setting: dose: 100.0 mg/kg/injection, schedule: Q01DX005 (ip), vehicle: Klucel (hydroxypropylcellulose) (HPC).
Where [4] appears, read: dose: 200.0 mg/kg/injection, schedule: Q01DX005 (ip), vehicle: Klucel (hydroxypropylcellulose) (HPC).
Where [5] appears, read: dose: 50.0 mg/kg/injection, schedule: Q01DX001 (ip), vehicle: saline.
Setting [6] is: dose: 100.0 mg/kg/injection, schedule: Q01DX001 (ip), vehicle: saline.
Setting [7] is: dose: 200.0 mg/kg/injection, schedule: Q01DX001 (ip), vehicle: saline.
Setting [8] is: dose: 100.0 mg/kg/injection, schedule: Q01DX009 (ip), vehicle: saline with Tween-80.
Setting [9] is: dose: 50.0 mg/kg/injection, schedule: Q01DX009 (ip), vehicle: saline with Tween-80.
The mark [10] stands for this setting: dose: 200.0 mg/kg/injection, schedule: Q01DX009 (ip), vehicle: saline with Tween-80.
Setting [11] is: dose: 50.0 mg/kg/injection, schedule: Q01DX009 (ip), vehicle: saline.
Setting [12] is: dose: 100.0 mg/kg/injection, schedule: Q01DX009 (ip), vehicle: saline.
Where [13] appears, read: dose: 60.0 mg/kg/injection, schedule: Q01DX005 (ip), vehicle: saline with Tween-80.
Setting [14] is: dose: 120.0 mg/kg/injection, schedule: Q01DX005 (ip), vehicle: saline with Tween-80.
[15] abbreviates: dose: 240.0 mg/kg/injection, schedule: Q01DX005 (ip), vehicle: saline with Tween-80.

Where “and” joins values, the source holds several entries; their conditions need not be identical. Identical values can stand only once. Inconclusive results and toxic doses are left out.

In the case of `CCCCCCCCN1CCS(=O)(=O)CC1`, the T/C by setting is: (dose: 50.0 mg/kg/injection, schedule: Q01DX009 (ip), vehicle: Klucel (hydroxypropylcellulose) (HPC)) 89 % of control; (dose: 100.0 mg/kg/injection, schedule: Q01DX009 (ip), vehicle: Klucel (hydroxypropylcellulose) (HPC)) 94 % of control; (dose: 200.0 mg/kg/injection, schedule: Q01DX009 (ip), vehicle: Klucel (hydroxypropylcellulose) (HPC)) 93 % of control.
Take `NC(C(=O)O)C1=CCCCCC1` (stereo not drawn): the T/C was 100 % of control under setting [1], 101 % of control under setting [2], 106 % of control under setting [3] and 101 % of control under setting [4].
As to `N#CN.[Pb]`, the T/C is, setting by setting: under setting [1], 115 % of control and 94 % of control; under setting [2], 101 % of control (2×) and 104 % of control; under setting [3], 107 % of control and 109 % of control and 110 % of control; under setting [4], 111 % of control.
As to `Nc1nc(N)c2nn(C3OC(CO)C(O)C3O)nc2n1` (stereo not drawn), the T/C is 103 % of control (dose: 25.0 mg/kg/injection, schedule: Q01DX001 (ip), vehicle: saline); 94 % of control under setting [5]; 105 % of control under setting [6]; 100 % of control under setting [7]; 100 % of control (dose: 400.0 mg/kg/injection, schedule: Q01DX001 (ip), vehicle: saline).
With `CC(=O)C1(O)CCC2(O)C3(O)CC=C4CC(O)CCC4(C)C3CC(OC(=O)c3ccc(O)cc3)C12C` (stereo not drawn), the T/C by setting is: (dose: 11.75 mg/kg/injection, schedule: Q01DX005 (ip), vehicle: distilled water + Tween-80 + alcohol) 93 % of control; (dose: 23.5 mg/kg/injection, schedule: Q01DX005 (ip), vehicle: distilled water + Tween-80 + alcohol) 94 % of control; (dose: 47.0 mg/kg/injection, schedule: Q01DX005 (ip), vehicle: distilled water + Tween-80 + alcohol) 95 % of control; (dose: 94.0 mg/kg/injection, schedule: Q01DX005 (ip), vehicle: distilled water + Tween-80 + alcohol) 94 % of control.
As for `COc1ccc(NC(=O)CCC(=O)Oc2ccccc2)cc1`, the T/C was 100 % of control under setting [8] and 94 % of control (dose: 400.0 mg/kg/injection, schedule: Q01DX009 (ip), vehicle: saline with Tween-80).
On to `CN1C=NNC(=O)c2ccccc21`, for which the T/C under setting [9] is 86 % of control, the T/C under setting [8] was 87 % of control and the T/C under setting [10] was 102 % of control.
Consider `Cn1ccc2c3c4ccccc4ccc3c3c(ccn3C)c21`, for which the T/C is 197 % of control under setting [2], 177 % of control under setting [3] and 239 % of control under setting [4].
With `COc1ccc(OC)c(N=Cc2ccc(C=Nc3cc(OC)ccc3OC)cc2)c1`, the T/C reads like this: under setting [11], 101 % of control; under setting [12], 101 % of control.
As for `O=C(O)c1ccc2c(=O)c(C(=O)O)c[nH]c2c1`, the T/C is 100 % of control under setting [11]; 96 % of control under setting [12]; 103 % of control (dose: 200.0 mg/kg/injection, schedule: Q01DX009 (ip), vehicle: saline).
Take `O=[N+]([O-])c1cccc(SNc2cccc(Cl)c2)c1`: the T/C is 100 % of control (dose: 25.0 mg/kg/injection, schedule: Q01DX009 (ip), vehicle: saline with Tween-80); 90 % of control (dose: 25.0 mg/kg/injection, schedule: Q04DX003 (ip), vehicle: saline with Tween-80); 95 % of control under setting [9]; 100 % of control (dose: 50.0 mg/kg/injection, schedule: Q04DX003 (ip), vehicle: saline with Tween-80); 104 % of control under setting [8]; 86 % of control (dose: 100.0 mg/kg/injection, schedule: Q04DX003 (ip), vehicle: saline with Tween-80). The T/C (dose: 200.0 mg/kg/injection, schedule: Q04DX003 (ip), vehicle: saline with Tween-80) was 100 % of control.
Turning to `N/C(=N\S(=O)(=O)c1cc(C(F)(F)F)cc(C(F)(F)F)c1)c1ccncc1`, the T/C was 86 % of control under setting [9] and 90 % of control under setting [8].
As to `CC1=NN(C(=O)c2ccccc2)C(=O)C1N=Nc1ccc(S(N)(=O)=O)cc1` (stereo not drawn), the T/C (dose: 50.0 mg/kg/injection, schedule: Q01DX001 (ip), vehicle: Klucel (hydroxypropylcellulose) (HPC)) was 101 % of control; the T/C (dose: 100.0 mg/kg/injection, schedule: Q01DX001 (ip), vehicle: Klucel (hydroxypropylcellulose) (HPC)) was 94 % of control; the T/C (dose: 200.0 mg/kg/injection, schedule: Q01DX001 (ip), vehicle: Klucel (hydroxypropylcellulose) (HPC)) is 96 % of control; the T/C (dose: 400.0 mg/kg/injection, schedule: Q01DX001 (ip), vehicle: Klucel (hydroxypropylcellulose) (HPC)) is 90 % of control.
On to `C=CC1(C)OC(=O)c2cc(C)c(OC)cc21` (stereo not drawn), for which the T/C by setting is: (dose: 50.0 mg/kg/injection, schedule: Q01DX001 (ip), vehicle: saline with Tween-80) 100 % of control; (dose: 100.0 mg/kg/injection, schedule: Q01DX001 (ip), vehicle: saline with Tween-80) 100 % of control; (dose: 200.0 mg/kg/injection, schedule: Q01DX001 (ip), vehicle: saline with Tween-80) 95 % of control; (dose: 400.0 mg/kg/injection, schedule: Q01DX001 (ip), vehicle: saline with Tween-80) 94 % of control.
Consider `CCCCCCCCCCC(C)c1ccc(S(=O)(=O)O)cc1` (stereo not drawn), for which the T/C runs as follows: under setting [5], 100 % of control; under setting [6], 90 % of control; under setting [7], 95 % of control.
Take `O=C(/C=C/c1ccccc1)Cc1nc2nnc(NC(=O)Nc3ccc(Cl)cc3)n2[nH]c1=O`: the T/C is 99 % of control under setting [13], 94 % of control under setting [14] and 102 % of control under setting [15].
For the compound `O=C1/C(=C/c2cccnc2)SC(=S)N1Cc1ccco1`, the T/C runs as follows: under setting [9], 97 % of control; under setting [8], 94 % of control; under setting [10], 90 % of control.
With `c1ccc(Cc2ccc[nH]2)cc1`, the T/C runs as follows: (dose: 100.0 mg/kg/injection, schedule: Q01DX001 (ip), vehicle: distilled water + alcohol) 100 % of control; (dose: 200.0 mg/kg/injection, schedule: Q01DX001 (ip), vehicle: distilled water + alcohol) 98 % of control; (dose: 400.0 mg/kg/injection, schedule: Q01DX001 (ip), vehicle: distilled water + alcohol) 112 % of control.
For `CCCC(=O)NN(Cn1c(=S)sc2ccccc21)Cn1c(=S)sc2ccccc21`, the T/C is 101 % of control under setting [2], 90 % of control under setting [3] and 93 % of control under setting [4].
As to `O=c1c2ccccc2[nH]c2c(O)c3c(=O)c4ccccc4[nH]c3cc12`, the T/C is, setting by setting: (dose: 100.0 mg/kg/injection, schedule: Q04DX003 (ip), vehicle: Klucel (hydroxypropylcellulose) (HPC)) 102 % of control; (dose: 200.0 mg/kg/injection, schedule: Q04DX003 (ip), vehicle: Klucel (hydroxypropylcellulose) (HPC)) 92 % of control; (dose: 400.0 mg/kg/injection, schedule: Q04DX003 (ip), vehicle: Klucel (hydroxypropylcellulose) (HPC)) 102 % of control.
Regarding `N#CC(C(=O)CCc1nc2ccccc2[nH]1)c1ccccc1Cl` (stereo not drawn), the T/C under setting [13] is 111 % of control, the T/C under setting [14] was 105 % of control and the T/C under setting [15] was 96 % of control.
Consider `O=C1C(c2cnccn2)=C(O)c2ccccc21`, for which the T/C by setting is: (dose: 15.0 mg/kg/injection, schedule: Q01DX005 (ip), vehicle: saline with Tween-80) 91 % of control; (dose: 30.0 mg/kg/injection, schedule: Q01DX005 (ip), vehicle: saline with Tween-80) 97 % of control; under setting [13], 100 % of control and 90 % of control.
With `Cc1c2c(c(C)c3c1[nH]c1ccccc13)C(C#N)N(C(=O)c1ccccc1)C=C2` (stereo not drawn), the T/C is 100 % of control (dose: 6.25 mg/kg/injection, schedule: Q04DX003 (ip), vehicle: distilled water + Tween-80); 102 % of control (dose: 12.5 mg/kg/injection, schedule: Q04DX003 (ip), vehicle: distilled water + Tween-80); 90 % of control (dose: 25.0 mg/kg/injection, schedule: Q04DX003 (ip), vehicle: distilled water + Tween-80); 88 % of control (dose: 50.0 mg/kg/injection, schedule: Q04DX003 (ip), vehicle: distilled water + Tween-80); 90 % of control (dose: 100.0 mg/kg/injection, schedule: Q04DX003 (ip), vehicle: distilled water + Tween-80); 94 % of control (dose: 200.0 mg/kg/injection, schedule: Q04DX003 (ip), vehicle: distilled water + Tween-80).
In the case of `Cn1c(=O)oc2cc(NC(N)=O)c(Cl)cc21`, the T/C was 94 % of control under setting [2], 90 % of control under setting [3] and 86 % of control under setting [4].
